Test results reported in US8802597B2, “Herbicidal pyrimidines” (E I du Pont de Nemours and Company, priority 2003, dated 2014).

Tests used:
Type in all cases: in vivo
[1] = system: Surinam grass (Brachiaria decumbens); assay: Test B pre/postemergence
Text: (§1) Seeds selected from barnyardgrass (Echinochloa crus-galli), Surinam grass (Brachiaria decumbens), cocklebur (Xanthium strumarium), corn (Zea mays), crabgrass (Digitaria sanguinalis), giant foxtail (Setaria faberii), lambsquarters (Chenopodium album), morningglory (Ipomoea coccinea), pigweed (Amaranthus retroflexus), velvetleaf (Abutilon theophrasti), and wheat (Triticum aestivum) were planted and treated preemergence with test chemicals formulated in a non-phytotoxic solvent mixture which included a surfactant.
(§2) At the same time, plants selected from these crop and weed species and also blackgrass (Alopecurus myosuroides) and wild oat (Avena fatua) were treated with postemergence applications of test chemicals formulated in the same manner. Plants ranged in height from 2 to 18 cm (1- to 4-leaf stage) for postemergence treatments. Plant species in the flooded paddy test consisted of rice (Oryza sativa), umbrella sedge (Cyperus difformis), duck salad (Heteranthera limosa) and barnyardgrass (Echinochloa crus-galli) grown to the 2-leaf stage for testing. Treated plants and controls were maintained in a greenhouse for 13 to 15 days, after which time all species were compared to controls and visually evaluated. Plant response ratings, summarized in Table B, are based on a scale of 0 to 100 where 0 is no effect and 100 is complete control. A dash (-) response means no test result.

[2] = system: barnyardgrass (Echinochloa crus-galli); assay: Test B pre/postemergence
Text: as §1, §2

[3] = system: cocklebur (Xanthium strumarium); assay: Test B pre/postemergence
Text: as §1, §2

corn (Zea mays) = assay: Test B pre/postemergence
Text: as §1, §2

[4] = system: crabgrass (Digitaria sanguinalis); assay: Test B pre/postemergence
Text: as §1, §2

[5] = system: giant foxtail (Setaria faberii); assay: Test B pre/postemergence
Text: as §1, §2

[6] = system: lambsquarters (Chenopodium album); assay: Test B pre/postemergence; details: Postemergence; for Lambsquarters plant response rating: 125 g ai/ha, scale 0 to 100 (0 no effect, 100 complete control); for Plant response rating, Lambsquarters: 500 g ai/ha, scale 0 to 100
Text: as §1, §2

[7] = system: morningglory (Ipomoea coccinea); assay: Test B pre/postemergence
Text: as §1, §2

[8] = system: pigweed (Amaranthus retroflexus); assay: Test B pre/postemergence
Text: as §1, §2

[9] = system: velvetleaf (Abutilon theophrasti); assay: Test B pre/postemergence
Text: as §1, §2

[10] = system: wheat (Triticum aestivum); assay: Test B pre/postemergence
Text: as §1, §2

[11] = system: blackgrass (Alopecurus myosuroides); assay: Test B postemergence; details: for Blackgrass plant response rating: 125 g ai/ha, scale 0 to 100 (0 no effect, 100 complete control); for Plant response rating, Blackgrass: 500 g ai/ha, scale 0 to 100
Text: as §1, §2

wild oat (Avena fatua) = assay: Test B postemergence; details: for Oat, Wild plant response rating: 125 g ai/ha, scale 0 to 100 (0 no effect, 100 complete control); for Plant response rating, Oat, Wild: 500 g ai/ha, scale 0 to 100
Text: as §1, §2

[12] = Postemergence, 125 g ai/ha, scale 0 to 100 (0 no effect, 100 complete control)
[13] = Postemergence, 500 g ai/ha, scale 0 to 100
[14] = Preemergence, 125 g ai/ha, scale 0 to 100 (0 no effect, 100 complete control)
[15] = Preemergence, 500 g ai/ha, scale 0 to 100 (0 no effect, 100 complete control)

SMILES: CCOC(=O)c1nc(C2CC2)nc(NOC)c1Br [Compound 52]
- Surinam Grass plant response rating [1, 12]: 0
- Plant response rating, Surinam Grass [1, 13]: 30
- Plant response rating, Surinam Grass [1, 14]: 0
- Plant response rating, Surinam Grass [1, 15]: 0
- Barnyardgrass plant response rating [2, 12]: 30
- Plant response rating, Barnyardgrass [2, 13]: 80
- Plant response rating, Barnyardgrass [2, 14]: 0
- Plant response rating, Barnyardgrass [2, 15]: 30
- Cocklebur plant response rating [3, 12]: 40
- Plant response rating, Cocklebur [3, 13]: 60
- Plant response rating, Cocklebur [3, 14]: 10
- Plant response rating, Cocklebur [3, 15]: 60
- Corn plant response rating (corn (Zea mays); [12]): 0
- Plant response rating, Corn (corn (Zea mays); [13]): 60
- Plant response rating, Corn (corn (Zea mays); [15]): 0
- Crabgrass plant response rating [4, 12]: 0
- Plant response rating, Crabgrass [4, 13]: 60
- Plant response rating, Crabgrass [4, 14]: 0
- Plant response rating, Crabgrass [4, 15]: 0
- Foxtail, Giant plant response rating [5, 12]: 40
- Plant response rating, Foxtail, Giant [5, 13]: 60
- Plant response rating, Foxtail, Giant [5, 14]: 0
- Plant response rating, Foxtail, Giant [5, 15]: 0
- Lambsquarters plant response rating [6]: 80
- Plant response rating, Lambsquarters [6]: 90
- Morningglory plant response rating [7, 12]: 90
- Plant response rating, Morningglory [7, 13]: 90
- Plant response rating, Morningglory [7, 14]: 10
- Plant response rating, Morningglory [7, 15]: 100
- Pigweed plant response rating [8, 12]: 60
- Plant response rating, Pigweed [8, 13]: 90
- Plant response rating, Pigweed [8, 15]: 50
- Velvetleaf plant response rating [9, 12]: 40
- Plant response rating, Velvetleaf [9, 13]: 50
- Plant response rating, Velvetleaf [9, 14]: 0
- Plant response rating, Velvetleaf [9, 15]: 30
- Wheat plant response rating [10, 12]: 0
- Plant response rating, Wheat [10, 13]: 20
- Plant response rating, Wheat [10, 14]: 0
- Plant response rating, Wheat [10, 15]: 0
- Blackgrass plant response rating [11]: 0
- Plant response rating, Blackgrass [11]: 50
- Oat, Wild plant response rating (wild oat (Avena fatua)): 0
- Plant response rating, Oat, Wild (wild oat (Avena fatua)): 20

SMILES: CCOC(=O)c1nc(C2CC2)nc(NOCc2ccccc2)c1Br [Compound 54]
- Surinam Grass plant response rating [1, 12]: 0
- Plant response rating, Surinam Grass [1, 13]: 0
- Plant response rating, Surinam Grass [1, 14]: 0
- Plant response rating, Surinam Grass [1, 15]: 0
- Barnyardgrass plant response rating [2, 12]: 0
- Plant response rating, Barnyardgrass [2, 13]: 70
- Plant response rating, Barnyardgrass [2, 14]: 0
- Plant response rating, Barnyardgrass [2, 15]: 40
- Cocklebur plant response rating [3, 12]: 20
- Plant response rating, Cocklebur [3, 13]: 80
- Plant response rating, Cocklebur [3, 14]: 50
- Plant response rating, Cocklebur [3, 15]: 90
- Corn plant response rating (corn (Zea mays); [12]): 0
- Plant response rating, Corn (corn (Zea mays); [13]): 20
- Plant response rating, Corn (corn (Zea mays); [14]): 0
- Plant response rating, Corn (corn (Zea mays); [15]): 0
- Crabgrass plant response rating [4, 12]: 20
- Plant response rating, Crabgrass [4, 13]: 30
- Plant response rating, Crabgrass [4, 14]: 0
- Plant response rating, Crabgrass [4, 15]: 0
- Foxtail, Giant plant response rating [5, 12]: 20
- Plant response rating, Foxtail, Giant [5, 13]: 30
- Plant response rating, Foxtail, Giant [5, 14]: 0
- Plant response rating, Foxtail, Giant [5, 15]: 0
- Lambsquarters plant response rating [6]: 80
- Plant response rating, Lambsquarters [6]: 90
- Morningglory plant response rating [7, 12]: 80
- Plant response rating, Morningglory [7, 13]: 90
- Plant response rating, Morningglory [7, 14]: 0
- Pigweed plant response rating [8, 12]: 80
- Plant response rating, Pigweed [8, 13]: 90
- Plant response rating, Pigweed [8, 14]: 100
- Plant response rating, Pigweed [8, 15]: 100
- Velvetleaf plant response rating [9, 12]: 50
- Plant response rating, Velvetleaf [9, 13]: 60
- Plant response rating, Velvetleaf [9, 14]: 10
- Plant response rating, Velvetleaf [9, 15]: 80
- Wheat plant response rating [10, 12]: 0
- Plant response rating, Wheat [10, 13]: 20
- Plant response rating, Wheat [10, 14]: 0
- Plant response rating, Wheat [10, 15]: 0
- Blackgrass plant response rating [11]: 40
- Plant response rating, Blackgrass [11]: 40
- Oat, Wild plant response rating (wild oat (Avena fatua)): 0
- Plant response rating, Oat, Wild (wild oat (Avena fatua)): 40

SMILES: CCOC(=O)c1nc(C2CC2)nc(NOCC(=O)O)c1Br [Compound 125]
- Surinam Grass plant response rating [1, 12]: 0
- Plant response rating, Surinam Grass [1, 13]: 10
- Plant response rating, Surinam Grass [1, 14]: 0
- Plant response rating, Surinam Grass [1, 15]: 0
- Barnyardgrass plant response rating [2, 12]: 0
- Plant response rating, Barnyardgrass [2, 13]: 70
- Plant response rating, Barnyardgrass [2, 14]: 0
- Cocklebur plant response rating [3, 12]: 40
- Plant response rating, Cocklebur [3, 13]: 60
- Plant response rating, Cocklebur [3, 14]: 30
- Plant response rating, Cocklebur [3, 15]: 90
- Corn plant response rating (corn (Zea mays); [12]): 0
- Plant response rating, Corn (corn (Zea mays); [13]): 0
- Plant response rating, Corn (corn (Zea mays); [14]): 0
- Plant response rating, Corn (corn (Zea mays); [15]): 0
- Crabgrass plant response rating [4, 12]: 20
- Plant response rating, Crabgrass [4, 13]: 30
- Plant response rating, Crabgrass [4, 14]: 0
- Plant response rating, Crabgrass [4, 15]: 100
- Foxtail, Giant plant response rating [5, 12]: 0
- Plant response rating, Foxtail, Giant [5, 13]: 40
- Plant response rating, Foxtail, Giant [5, 14]: 0
- Plant response rating, Foxtail, Giant [5, 15]: 0
- Lambsquarters plant response rating [6]: 60
- Plant response rating, Lambsquarters [6]: 70
- Morningglory plant response rating [7, 12]: 70
- Plant response rating, Morningglory [7, 13]: 90
- Plant response rating, Morningglory [7, 14]: 30
- Plant response rating, Morningglory [7, 15]: 100
- Pigweed plant response rating [8, 12]: 60
- Plant response rating, Pigweed [8, 13]: 60
- Plant response rating, Pigweed [8, 14]: 30
- Plant response rating, Pigweed [8, 15]: 90
- Velvetleaf plant response rating [9, 12]: 0
- Plant response rating, Velvetleaf [9, 13]: 50
- Plant response rating, Velvetleaf [9, 14]: 10
- Plant response rating, Velvetleaf [9, 15]: 90
- Wheat plant response rating [10, 12]: 0
- Plant response rating, Wheat [10, 13]: 0
- Plant response rating, Wheat [10, 14]: 0
- Plant response rating, Wheat [10, 15]: 0
- Blackgrass plant response rating [11]: 0
- Plant response rating, Blackgrass [11]: 20
- Oat, Wild plant response rating (wild oat (Avena fatua)): 0
- Plant response rating, Oat, Wild (wild oat (Avena fatua)): 20

SMILES: CCOC(=O)c1nc(C2CC2)nc(NOC(C)(C)C)c1Br [Compound 55]
- Surinam Grass plant response rating [1, 12]: 0
- Plant response rating, Surinam Grass [1, 13]: 0
- Plant response rating, Surinam Grass [1, 14]: 0
- Plant response rating, Surinam Grass [1, 15]: 50
- Barnyardgrass plant response rating [2, 12]: 0
- Plant response rating, Barnyardgrass [2, 13]: 50
- Plant response rating, Barnyardgrass [2, 14]: 0
- Plant response rating, Barnyardgrass [2, 15]: 60
- Cocklebur plant response rating [3, 12]: 20
- Plant response rating, Cocklebur [3, 13]: 80
- Plant response rating, Cocklebur [3, 14]: 70
- Plant response rating, Cocklebur [3, 15]: 90
- Corn plant response rating (corn (Zea mays); [12]): 0
- Plant response rating, Corn (corn (Zea mays); [13]): 20
- Plant response rating, Corn (corn (Zea mays); [14]): 0
- Plant response rating, Corn (corn (Zea mays); [15]): 0
- Crabgrass plant response rating [4, 12]: 0
- Plant response rating, Crabgrass [4, 13]: 30
- Plant response rating, Crabgrass [4, 14]: 50
- Plant response rating, Crabgrass [4, 15]: 60
- Foxtail, Giant plant response rating [5, 12]: 20
- Plant response rating, Foxtail, Giant [5, 13]: 20
- Plant response rating, Foxtail, Giant [5, 14]: 0
- Plant response rating, Foxtail, Giant [5, 15]: 0
- Lambsquarters plant response rating [6]: 70
- Plant response rating, Lambsquarters [6]: 90
- Morningglory plant response rating [7, 12]: 80
- Plant response rating, Morningglory [7, 13]: 90
- Plant response rating, Morningglory [7, 14]: 80
- Plant response rating, Morningglory [7, 15]: 100
- Pigweed plant response rating [8, 12]: 70
- Plant response rating, Pigweed [8, 13]: 80
- Plant response rating, Pigweed [8, 14]: 80
- Plant response rating, Pigweed [8, 15]: 100
- Velvetleaf plant response rating [9, 12]: 10
- Plant response rating, Velvetleaf [9, 13]: 30
- Plant response rating, Velvetleaf [9, 14]: 50
- Plant response rating, Velvetleaf [9, 15]: 90
- Wheat plant response rating [10, 12]: 0
- Plant response rating, Wheat [10, 13]: 0
- Plant response rating, Wheat [10, 14]: 0
- Plant response rating, Wheat [10, 15]: 70
- Blackgrass plant response rating [11]: 30
- Plant response rating, Blackgrass [11]: 40
- Oat, Wild plant response rating (wild oat (Avena fatua)): 0
- Plant response rating, Oat, Wild (wild oat (Avena fatua)): 20
